The test system of data set [1] is fecal metabolome. As to the kind of experiment: Fecal metabolome pre- and post-5-ASA in new users (IBDMDB). It is filed as in vivo, human. To be noted: stool pre- vs post-5-ASA. Here is the method:
A portion of each selected stool sample (40-100 mg) and the entire volume of originating ethanol preservative were stored in 15-ml centrifuge tubes at −80° C. until all samples were collected. Samples were then thawed on ice and centrifuged (4° C., 5,000 g) for 5 min. Ethanol was evaporated using a gentle stream of nitrogen gas using a nitrogen evaporator (TurboVap LV; Biotage) and stored at −80° C. until all samples in the study had been dried. After a homogenization and vortexing process, the mixture was aliquoted and stored at −80° C. until LC-MS analyses.
A combination of four untargeted LC-MS methods were used to profile metabolites in the fecal homogenates, as previously published;^22 two methods that measure polar metabolites (a method that measures metabolites of intermediate polarity (for example, fatty acids and bile acids), and a lipid profiling method: 1) HILIC-pos (positive ion mode MS analyses of polar metabolites), 2) HILIC-neg (negative ion mode MS analysis of polar metabolites), 3) C18-neg (negative ion mode analysis of metabolites of intermediate polarity; for example, bile acids and free fatty acids), and 4) C8-pos. Lipids (polar and nonpolar). Additionally, pairs of pooled reference samples were inserted into the queue at intervals of approximately 20 samples for quality control and data standardization. […]
Raw LC-MS data were acquired to the data acquisition computer interfaced to each LC-MS system and then stored on a robust and redundant file storage system (Isilon Systems) accessed via the internal network at the Broad Institute. […] Identification of nontargeted metabolite LC-MS peaks was conducted by: i) matching measured retention times and masses to mixtures of reference metabolites analyzed in each batch; and ii) matching an internal database of >600 compounds that have been characterized using the Broad Institute methods. Temporal drift was monitored and normalized with the intensities of features measured in the pooled reference samples. […]

The test system of data set [2] is Firmicutes CAG:176 thiolase (FcTHL, UniRef90 ID R6CZ24). In words: In vitro mass spectrometry end-point assay for 5-ASA acetylation. It is filed as biochemical, Firmicutes bacterium CAG:176. To be noted: 6 hr at 37° C., 1 mM of each substrate, 50 μM enzyme. The source says: (§1) Having identified thiolase and acyl-CoA N-acetyltransferase superfamilies with potential 5-ASA-inactivating capabilities, we sought to biochemically confirm these predicted activities in vitro. […] We expressed the known NAT from Salmonella enterica, the candidate thiolase from Firmicutes CAG:176 (UniRef90 ID R6CZ24), and the acyl-CoA N-acetyltransferase from F. prausnitzii (UniRef90 ID C7H1G6) for further biochemical characterization (FIG. 14a). […] The known S. enterica enzyme served as a positive control (FIG. 14b).
(§2) Identities of the constructs were confirmed with DNA sequencing and then were transformed into E. coli BL21 strains for expression according to the standardized protocols from GenScript. All E. coli expression constructs were grown anaerobically in sealed Hungate tubes in Terrific Broth (VWR) supplemented with 5 mM MgSO4 and kanamycin (50 μg/mL) and were incubated at 37° C. overnight before dilution at 1:100 into fresh media the following morning. […]
(§3) The samples were injected into an Infinity Lab Poroshell120 Hilic column (2.1×100 mm 2.7 μm) at 25° C. […] For absolute quantification, all samples were normalized to the taurine internal standard and concentrations calculated against a standard curve.

For data set [3] the following is noted: human, in vivo; cited from earlier work.
The conditions of data set [4]: in vivo; cited from earlier work.
Data set [5] concerns F. prausnitzii acyl-CoA N-acetyltransferase (FpGNAT, UniRef90 ID C7H1G6). As to the kind of experiment: In vitro mass spectrometry end-point assay for 5-ASA acetylation. The data set is classed as biochemical, Faecalibacterium prausnitzii. To be noted: 6 hr at 37° C., 1 mM of each substrate, 50 μM enzyme.
Text: as §1, §2, §3

Data set [6] concerns Firmicutes CAG:176 thiolase (FcTHL). In words: Kinetic assay of 5-ASA acetylation. To be noted: 5-ASA varied, 1 mM acetyl-CoA, 5 μM enzyme, 37° C. It is filed as biochemical, Firmicutes bacterium CAG:176. On the procedure: The samples were injected into an Infinity Lab Poroshell120 Hilic column (2.1×100 mm 2.7 μm) at 25° C. […] This was followed by a 3 second gradient to 40% mobile phase B. This was then followed by a 27 second gradient returning to 5% mobile phase A at a flow rate of 1200 μL/min. This flow rate and ratio was held for an additional 48 seconds. Additional column equilibration was carried out on a secondary pump for 117 seconds at 5% mobile phase A and a flow rate of 1000 μL/min. MS was conducted in negative ion mode using electrospray ionization. […] Other MS settings were as follows: heater temp 300° C., ESI nebulizer 45 psi, spray voltage 3.5 kV, acquisition time 100 ms/spectrum. […] For absolute quantification, all samples were normalized to the taurine internal standard and concentrations calculated against a standard curve.

In data set [7] the test system is colonic epithelial cells. To be noted: cited from earlier work.
The conditions of data set [8]: in vivo; cited from earlier work. This is another data set of the same source.
For data set [9], the system named is Firmicutes CAG:176 thiolase (FcTHL). As to the kind of experiment: Promiscuity (substrate competition) assay of the thiolase with amine-containing xenobiotics. To be noted: 1 mM substrate, 5 μM enzyme, room temperature 1 hour. On the procedure:
Enzyme concentrations were calculated according to Beer's Law with extinction coefficients calculated by Benchling software based on the amino acid sequences of the putative enzymes. […] Reactions were conducted at 37° C. for 6 hours for the initial endpoint assay and room temperature for 1 hour for the promiscuity assay. Quenching/extraction for the promiscuity assay was with equal volumes of acetonitrile and methanol. Quenching/extraction for the end-point was one part sample and nine-parts extraction mix (75% acetonitrile:25% methanol v/v with 10 μM 1,2-^13C2-taurine from Cambridge Isotopes as an internal standard for quantification). Samples were vortexed and cooled to −20° C. and then centrifuged prior to LC-MS analysis.
For the promiscuity assays, mass spectrometry analyses were conducted using an LC-MS system composed of an Agilent 1260 Infinity HPLC (Agilent Technologies) coupled to a 6530 Accurate-Mass QTOF LC-MS (Agilent Technologies). The samples were injected into a 150×3 mm Hypersil GOLD aQ column (Thermo Scientific) at 30° C. […] Remaining identities were inferred using calculated masses with a mass detection tolerance of 10 ppm. Raw data from the LC-MS were analyzed using Agilent MassHunter Qualitative Analysis 10.0 software.

SMILES strings stand for the structures. A value given as a limit tells only on which side of the number the result lay.

Turning to `Nc1ccc(O)c(C(=O)O)c1` [5-ASA, 5-aminosalicylic acid], the “abundance of fecal 2-aminoadipate following 5-ASA treatment” value in [1] (13 new users) is given as “reduced”. In data set [1], the “abundance of fecal nicotinic acid (NA) with 5-ASA” value is recorded as “dropped” and the “abundance of fecal nicotinuric acid (NUA) with 5-ASA” value is listed as “dramatically increased”. In data set [2], the “conversion of 5-ASA to N-acetyl 5-ASA using acetyl-CoA” value is over 25%. The “IBD patients who fail to respond or eventually lose response” value in data set [3] is listed as “over half”. The “intraluminal stool concentrations of 5-ASA (median)” value in data set [4] is given as 30 mM. In addition, the “conversion of 5-ASA to N-acetyl 5-ASA using acetyl-CoA” value in data set [5] was over 25%. Moreover, the Km in data set [6] (+/−0.46 mM) stood at 1880 µM. Moreover, the turnover number (kcat) in data set [6] (+/−0.0199) worked out at 0.00108 s⁻¹.

As for `CC(=O)Nc1ccc(O)c(C(=O)O)c1` [N-acetyl 5-ASA], the “bioavailability to colonic epithelial cells” value in data set [7] is recorded as under 5%. Moreover, the “anti-inflammatory activity in placebo-controlled trials” value in data set [8] was “lacks anti-inflammatory activity”.

Consider `NNc1nncc2ccccc12` [hydralazine], for which, in [9], the “acetylation of the compound by the thiolase” value was “did not observe any acetylation”.

`CCN(CC)CCNC(=O)c1ccc(N)cc1` [procainamide]: the “acetylation of the compound by the thiolase” value in data set [9] was “did not observe any acetylation”.

(Values after patent publication US20250146074A1 (The General Hospital Corporation, priority 2023, published 2025).)
